Values quoted from earlier work as cited in US12324431B2, “Compositions and methods for scalable production and delivery of biologicals” (priority 2017, dated 2025).

Test system: insects
Settings: potency similar to imidacloprid

orally active insecticidal peptide-1 [OAIP-1]
toxicity to insects: highly toxic
